Data reported in ChEMBL document CHEMBL1201862, “PubChem BioAssay data set” (2004).
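Assay format: 96-well plates, 48-hour exposure. GI50 is the concentration that inhibits growth by half.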 Calls of active or inactive are those of the source. Cut-off read from the data, not from the text of the source: active = GI50 up to about 1.1 µM and inactive = higher.

Assays:
Experiment in all cases: DTP human tumour cell line panel, 48 h
UO-31 = tested on: UO-31
SNB-19 = tested on: SNB-19
A549 = tested on: A549
NCI-H23 = tested on: NCI-H23
COLO 205 = tested on: COLO 205
KM12 = tested on: KM12
UACC-257 = tested on: UACC-257
MDA-N = tested on: MDA-N
TK-10 = tested on: TK-10
SK-MEL-5 = tested on: SK-MEL-5
MCF7 = tested on: MCF7
786-0 = tested on: 786-0
MDA-MB-231 = tested on: MDA-MB-231
HOP-62 = tested on: HOP-62
SF-539 = tested on: SF-539
RXF 393 = tested on: RXF 393
NCI-H460 = tested on: NCI-H460
NCI-H522 = tested on: NCI-H522
A498 = tested on: A498
SF-295 = tested on: SF-295
Hs-578T = tested on: Hs-578T
MOLT-4 = tested on: MOLT-4
IGROV-1 = tested on: IGROV-1
SR = tested on: SR
K562 = tested on: K562
U-251 = tested on: U-251
HCT-116 = tested on: HCT-116
M14 = tested on: M14
HCT-15 = tested on: HCT-15
LOX IMVI = tested on: LOX IMVI
OVCAR-5 = tested on: OVCAR-5
HL-60 = tested on: HL-60
SNB-75 = tested on: SNB-75
HOP-92 = tested on: HOP-92
CCRF-CEM = tested on: CCRF-CEM
DU-145 = tested on: DU-145
OVCAR-4 = tested on: OVCAR-4
NCI-H226 = tested on: NCI-H226
T47D = tested on: T47D
MDA-MB-435 = tested on: MDA-MB-435
PC-3 = tested on: PC-3
ACHN = tested on: ACHN
OVCAR-3 = tested on: OVCAR-3
BT-549 = tested on: BT-549
Malme-3M = tested on: Malme-3M
RPMI-8226 = tested on: RPMI-8226
SN12C = tested on: SN12C
SK-MEL-28 = tested on: SK-MEL-28
SW-620 = tested on: SW-620
HCC 2998 = tested on: HCC 2998
CAKI-1 = tested on: CAKI-1
EKVX = tested on: EKVX
UACC-62 = tested on: UACC-62
NCI/ADR-RES = tested on: NCI/ADR-RES
SF-268 = tested on: SF-268
SK-OV-3 = tested on: SK-OV-3
OVCAR-8 = tested on: OVCAR-8
HT-29 = tested on: HT-29
SK-MEL-2 = tested on: SK-MEL-2

CCOC(=O)C1OC(C2(C)OC3(OC4(C=CC3O)OC(C(C)C(=O)C(C)C(O)C(C)CC(C)c3c(Cl)cc(C)c(O)c3C(=O)O)C(C)CC4C)C(C)C2OC)CC1O (configuration not stated)
GI50 (UO-31): 1.18 µM (inactive)
GI50 (SNB-19): 0.249 µM (active)
GI50 (A549): 0.406 µM (active)
GI50 (NCI-H23): 0.507 µM (active)
GI50 (COLO 205): 0.818 µM (active)
GI50 (KM12): 1.28 µM (inactive)
GI50 (UACC-257): 0.577 µM (active)
GI50 (MDA-N): 0.55 µM (active)
GI50 (TK-10): 2.34 µM (inactive)
GI50 (SK-MEL-5): 0.257 µM (active)
GI50 (MCF7): 0.181 µM (active)
GI50 (786-0): 0.454 µM (active)
GI50 (MDA-MB-231): 1.15 µM (inactive)
GI50 (HOP-62): 0.0535 µM (active)
GI50 (SF-539): 0.65 µM (active)
GI50 (RXF 393): 0.647 µM (active)
GI50 (NCI-H460): 0.0826 µM (active)
GI50 (NCI-H522): < 0.0803 µM (active)
GI50 (A498): 0.46 µM (active)
GI50 (SF-295): 0.257 µM (active)
GI50 (Hs-578T): 0.982 µM (active)
GI50 (MOLT-4): 0.117 µM (active)
GI50 (IGROV-1): 2.1 µM (inactive)
GI50 (SR): 0.207 µM (active)
GI50 (K562): 0.505 µM (active)
GI50 (U-251): 0.189 µM (active)
GI50 (HCT-116): 0.693 µM (active)
GI50 (M14): 0.48 µM (active)
GI50 (HCT-15): 0.453 µM
GI50 (LOX IMVI): 0.413 µM (active)
GI50 (OVCAR-5): 2.69 µM (inactive)
GI50 (HL-60): 0.542 µM (active)
GI50 (SNB-75): 0.163 µM (active)
GI50 (HOP-92): 2.13 µM (inactive)
GI50 (CCRF-CEM): 0.0828 µM (active)
GI50 (DU-145): 0.598 µM (active)
GI50 (OVCAR-4): 0.544 µM (active)
GI50 (NCI-H226): 0.24 µM (active)
GI50 (T47D): 0.955 µM (active)
GI50 (MDA-MB-435): 0.286 µM (active)
GI50 (PC-3): 1.6 µM (inactive)
GI50 (ACHN): 0.441 µM (active)
GI50 (OVCAR-3): 0.45 µM (active)
GI50 (BT-549): 2.08 µM (inactive)
GI50 (Malme-3M): 0.294 µM (active)
GI50 (RPMI-8226): 0.54 µM (active)
GI50 (SN12C): 0.207 µM (active)
GI50 (SK-MEL-28): 0.418 µM (active)
GI50 (SW-620): 0.251 µM (active)
GI50 (HCC 2998): 0.034 µM (active)
GI50 (CAKI-1): 0.752 µM (active)
GI50 (EKVX): 1.09 µM (active)
GI50 (UACC-62): 0.27 µM (active)
GI50 (NCI/ADR-RES): 1.24 µM (inactive)
GI50 (SF-268): 0.155 µM (active)
GI50 (SK-OV-3): 0.177 µM (active)
GI50 (OVCAR-8): 0.771 µM (active)
GI50 (HT-29): 0.34 µM (active)
GI50 (SK-MEL-2): 0.493 µM (active)

Cc1ccc(OCC2OC(n3cnc4nc(Cl)nc(Cl)c43)CC2Oc2ccc(C)cc2)cc1 (configuration not stated)
GI50 (UO-31): 10.1 µM (inactive)
GI50 (SNB-19): 15.7 µM (inactive)
GI50 (A549): 27.3 µM (inactive)
GI50 (NCI-H23): 7.71 µM (inactive)
GI50 (COLO 205): 9.25 µM (inactive)
GI50 (KM12): 8.73 µM (inactive)
GI50 (UACC-257): 12.9 µM (inactive)
GI50 (MDA-N): 3.74 µM (inactive)
GI50 (TK-10): 13.8 µM (inactive)
GI50 (SK-MEL-5): 16.3 µM (inactive)
GI50 (MCF7): 5.61 µM (inactive)
GI50 (786-0): 5.25 µM (inactive)
GI50 (MDA-MB-231): 2.51 µM (inactive)
GI50 (HOP-62): 16.3 µM (inactive)
GI50 (SF-539): 5.94 µM (inactive)
GI50 (RXF 393): 3.85 µM (inactive)
GI50 (NCI-H460): 6.55 µM (inactive)
GI50 (NCI-H522): 1.84 µM (inactive)
GI50 (A498): 22.4 µM (inactive)
GI50 (SF-295): 16.4 µM (inactive)
GI50 (Hs-578T): 11.9 µM (inactive)
GI50 (MOLT-4): 2.01 µM (inactive)
GI50 (IGROV-1): 5.36 µM (inactive)
GI50 (SR): 1.78 µM (inactive)
GI50 (K562): 1.95 µM (inactive)
GI50 (U-251): 11.1 µM (inactive)
GI50 (HCT-116): 4.55 µM (inactive)
GI50 (M14): 6.35 µM (inactive)
GI50 (HCT-15): 2.36 µM
GI50 (LOX IMVI): 2 µM (inactive)
GI50 (OVCAR-5): 17.2 µM (inactive)
GI50 (HL-60): 0.402 µM (active)
GI50 (SNB-75): 14.7 µM (inactive)
GI50 (HOP-92): 2.69 µM (inactive)
GI50 (CCRF-CEM): 2.99 µM (inactive)
GI50 (DU-145): 12.9 µM (inactive)
GI50 (OVCAR-4): 15.7 µM (inactive)
GI50 (NCI-H226): 12 µM (inactive)
GI50 (T47D): 6.19 µM (inactive)
GI50 (MDA-MB-435): 5.3 µM (inactive)
GI50 (PC-3): 11.6 µM (inactive)
GI50 (ACHN): 3.05 µM (inactive)
GI50 (OVCAR-3): 6.38 µM (inactive)
GI50 (BT-549): 9.51 µM (inactive)
GI50 (Malme-3M): 13.6 µM (inactive)
GI50 (RPMI-8226): 2.62 µM (inactive)
GI50 (SN12C): 7.31 µM (inactive)
GI50 (SK-MEL-28): 3.65 µM (inactive)
GI50 (SW-620): 3.76 µM (inactive)
GI50 (HCC 2998): 3.39 µM (inactive)
GI50 (CAKI-1): 4.75 µM (inactive)
GI50 (EKVX): 11.2 µM (inactive)
GI50 (UACC-62): 6.04 µM (inactive)
GI50 (NCI/ADR-RES): 15.3 µM (inactive)
GI50 (SF-268): 7.01 µM (inactive)
GI50 (SK-OV-3): 30.3 µM (inactive)
GI50 (OVCAR-8): 13.1 µM (inactive)
GI50 (HT-29): 5.85 µM (inactive)
GI50 (SK-MEL-2): 4.98 µM (inactive)

FC(F)(F)c1ccc2c(-c3cc[nH]c3)ccnc2c1
GI50 (UO-31): 20.9 µM (inactive)
GI50 (SNB-19): 17.5 µM (inactive)
GI50 (A549): 26 µM (inactive)
GI50 (NCI-H23): 28 µM (inactive)
GI50 (COLO 205): 23.6 µM (inactive)
GI50 (KM12): 31.8 µM (inactive)
GI50 (UACC-257): 31.4 µM (inactive)
GI50 (MDA-N): 32.3 µM (inactive)
GI50 (TK-10): 28.6 µM (inactive)
GI50 (SK-MEL-5): 20.7 µM (inactive)
GI50 (MCF7): 30.8 µM (inactive)
GI50 (786-0): 17.7 µM (inactive)
GI50 (MDA-MB-231): 40.1 µM (inactive)
GI50 (HOP-62): 35.5 µM (inactive)
GI50 (SF-539): 37.8 µM (inactive)
GI50 (RXF 393): 22.5 µM (inactive)
GI50 (NCI-H460): 33.7 µM (inactive)
GI50 (NCI-H522): 32.4 µM (inactive)
GI50 (A498): 23.8 µM (inactive)
GI50 (SF-295): 30 µM (inactive)
GI50 (Hs-578T): 23.9 µM (inactive)
GI50 (MOLT-4): 19.4 µM (inactive)
GI50 (IGROV-1): 39.5 µM (inactive)
GI50 (SR): 27 µM (inactive)
GI50 (K562): 30 µM (inactive)
GI50 (U-251): 44.3 µM (inactive)
GI50 (HCT-116): 32.5 µM (inactive)
GI50 (M14): 34.5 µM (inactive)
GI50 (HCT-15): > 100 µM
GI50 (LOX IMVI): 19.4 µM (inactive)
GI50 (OVCAR-5): 44.9 µM (inactive)
GI50 (HL-60): 16.7 µM (inactive)
GI50 (SNB-75): 14.4 µM (inactive)
GI50 (HOP-92): 52.4 µM (inactive)
GI50 (CCRF-CEM): 32.6 µM (inactive)
GI50 (DU-145): 32.5 µM (inactive)
GI50 (OVCAR-4): 53.2 µM (inactive)
GI50 (NCI-H226): 36.9 µM (inactive)
GI50 (T47D): > 100 µM (inactive)
GI50 (MDA-MB-435): 35 µM (inactive)
GI50 (PC-3): 36.6 µM (inactive)
GI50 (ACHN): 31.8 µM (inactive)
GI50 (OVCAR-3): 27.4 µM (inactive)
GI50 (BT-549): 22.6 µM (inactive)
GI50 (Malme-3M): 24.5 µM (inactive)
GI50 (RPMI-8226): 34.2 µM (inactive)
GI50 (SN12C): 41 µM (inactive)
GI50 (SK-MEL-28): 35.6 µM (inactive)
GI50 (SW-620): 36.1 µM (inactive)
GI50 (HCC 2998): > 100 µM (inactive)
GI50 (CAKI-1): 31.4 µM (inactive)
GI50 (EKVX): 33 µM (inactive)
GI50 (UACC-62): > 100 µM (inactive)
GI50 (NCI/ADR-RES): 37.1 µM (inactive)
GI50 (SF-268): > 10 µM (inactive)
GI50 (SK-OV-3): > 100 µM (inactive)
GI50 (OVCAR-8): 34.1 µM (inactive)
GI50 (HT-29): 21.4 µM (inactive)
GI50 (SK-MEL-2): > 100 µM (inactive)
